pIC50: −log10 of the molar value. One block for each compound: values may come before it.
Test system: 958667-338-R-J2-PDC tumor spheroids viability
Experiment: Anticancer human tumor 958667-338-R-J2-PDC patient-derived colon adenocarcinoma cell line growth inhibition [PI3K]
Conditions: spheroids with HUVEC and MSC; for pIC50: curve of first compound; for viability, T/C: stronger effect = lower value
Excerpt: Combinatorial screen of targeted agents with the PI3K inhibitors inavolisib, alpelisib, duvelisib, and copanlisib in multi-cell type tumor spheroids
A high-throughput screen of multi-cell type tumor spheroids was designed to identify active combinations of targeted small molecules and PI3K pathway inhibitors. Complex spheroids include a stromal component modeled by human endothelial cells (HUVEC) and fibroblasts modeled by human mesenchymal stem cells (MSCs). The concentration ranges selected for each drug and investigational agent were based upon clinically achievable concentrations if the clinical Cmax of the agent was known.
Compounds. The drugs and investigational agents: inavolisib (NSC800729), alpelisib (NSC765974), duvelisib (NSC772469), copanlisib (NSC816437), ipatasertib (NSC767898), afuresertib (NSC778305), talazoparib (NSC767125), sapanisertib (NSC764658), selumetinib (NSC741078), tovorafenib (DAY101, NSC766906), vemurafenib (NSC761431), ravoxertinib (NSC781343), sotorasib (NSC818433), MRTX1133 (NSC 836407), abemaciclib (NSC 768073), palbociclib (NSC758247), venetoclax (NSC 766270), SY5609 (NSC837396), enzalutamide (NSC755605), and darolutamide (NSC825331), were obtained from the National Cancer Institute (NCI) Developmental Therapeutics Program Chemical Repository. The FDA-approved anticancer drug set is available from the NCI Developmental Therapeutics Program. […] The stock solutions were prepared in dimethyl sulfoxide (DMSO, Sigma-Aldrich, St. Louis, MO, cat. D2650) at 800-fold the tested concentration and stored at -70 degrees C prior to their use. All drugs and investigational agents were tested over a range starting from a high concentration at or near the clinical Cmax and decreasing in half-log increments. If the clinical Cmax for an agent had not been determined, the highest concentration tested was 10 microM.
Cell Culture. All cells were maintained in an incubator at 37 degrees C and 5% CO2 with 95% humidity. The PDC lines were cultured according to standard operating procedures established by the NCI PDMR (https://pdmr.cancer.gov/sops/default.htm). All PDCs were thawed and cultured in Matrigel-coated flasks prepared with a working solution of 1X Ham's F-12 nutrient mix, without supplementation (Invitrogen, Waltham, MA, cat. 11765054), 100 U/mL penicillin-streptomycin (Invitrogen, cat. 15140122), and 2.5% Matrigel (Corning Inc., Corning, NY, cat. 354248) for the first three passages. The 354836-022-R-J1-PDC, 475296-252-R-J1-PDC, and 997726-040-R-J2-PDC lines were cultured in 6A media, which includes advanced DMEM/F-12 (Thermo Fisher Scientific, cat. 12634028), 10 mM HEPES (Thermo Fisher Scientific, cat. 15630080), 1X GlutaMAX supplement (Thermo Fisher Scientific, cat. 35050061), 0.1 mg/mL primocin (InvivoGen, San Diego, CA, cat. ant-pm-2), 10% defined fetal bovine serum, heat inactivated (HyClone Laboratories Inc., Logan, UT, cat. SH30070.03HI), 50% L-WRN conditioned media (ATCC, cat. CRL-3276), 1.25 mM N-Acetyl-L-cysteine (Sigma-Aldrich, cat. A9165), 10 mM nicotinamide (Sigma-Aldrich, cat. N0636), 1X B-27 supplement (Thermo Fisher Scientific, cat. 17504044), 1X N-2 supplement (Thermo Fisher Scientific, cat. 17502048), and 10 microM Y-27632 dihydrochloride (Tocris Bioscience, Bristol, United Kingdom, cat. 1254). The 624824-186-R-J2-PDC line was cultured in 6C/Colon 1B media, which includes all 6A media components plus 50 ng/mL human EGF recombinant protein (Thermo Fisher Scientific, cat. PHG0311). […]

[1] = second compound 0.00316 µM, first compound 0.0316 µM
[2] = second compound 0.00316 µM, first compound 0.1 µM
[3] = second compound 0.01 µM, first compound 0.0316 µM
[4] = second compound 0.01 µM, first compound 0.1 µM
[5] = second compound 0.0316 µM, first compound 0.0316 µM
[6] = second compound 0.0316 µM, first compound 0.1 µM
[7] = second compound 0.1 µM, first compound 0.0316 µM
[8] = second compound 0.1 µM, first compound 0.1 µM
[9] = second compound 0.316 µM, first compound 0.0316 µM
[10] = second compound 0.316 µM, first compound 0.1 µM
[11] = second compound 1 µM, first compound 0.0316 µM
[12] = second compound 1 µM, first compound 0.1 µM
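Note: spheroids exposed to compounds for seven days before readout.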

- pIC50 (second compound 0.00316 µM): 5.52
- pIC50 (second compound 0.01 µM): 5.63
- pIC50 (second compound 0.0316 µM): 5.57
- pIC50 (second compound 0.1 µM): 5.71
- pIC50 (second compound 0.316 µM): 6.03
- pIC50 (second compound 1 µM): > 7.50
Compound: Cn1ncc(Cl)c1-c1cc(C(=O)NC(CN)Cc2cccc(F)c2)sc1Cl (centres undefined) + CC(Nc1ccc2c(c1)OCCn1cc(N3C(=O)OCC3C(F)F)nc1-2)C(N)=O
- viability, T/C [1]: 98.9%
- viability, T/C [2]: 94.4%
- viability, T/C (second compound 0.00316 µM, first compound 0.316 µM): 96.2%
- viability, T/C (second compound 0.00316 µM, first compound 1 µM): 76.3%
- viability, T/C (second compound 0.00316 µM, first compound 3.16 µM): 49.4%
- viability, T/C (second compound 0.00316 µM, first compound 10 µM): 41.6%
- viability, T/C [3]: 109%
- viability, T/C [4]: 104%
- viability, T/C (second compound 0.01 µM, first compound 0.316 µM): 104%
- viability, T/C (second compound 0.01 µM, first compound 1 µM): 75%
- viability, T/C (second compound 0.01 µM, first compound 3.16 µM): 41.8%
- viability, T/C (second compound 0.01 µM, first compound 10 µM): 27.7%
- viability, T/C [5]: 106%
- viability, T/C [6]: 91.2%
- viability, T/C (second compound 0.0316 µM, first compound 0.316 µM): 94.2%
- viability, T/C (second compound 0.0316 µM, first compound 1 µM): 85.8%
- viability, T/C (second compound 0.0316 µM, first compound 3.16 µM): 44.3%
- viability, T/C (second compound 0.0316 µM, first compound 10 µM): 29.5%
- viability, T/C [7]: 95.8%
- viability, T/C [8]: 89%
- viability, T/C (second compound 0.1 µM, first compound 0.316 µM): 79.4%
- viability, T/C (second compound 0.1 µM, first compound 1 µM): 65.7%
- viability, T/C (second compound 0.1 µM, first compound 3.16 µM): 38.4%
- viability, T/C (second compound 0.1 µM, first compound 10 µM): 25.6%
- viability, T/C [9]: 54.1%
- viability, T/C [10]: 79.6%
- viability, T/C (second compound 0.316 µM, first compound 0.316 µM): 63%
- viability, T/C (second compound 0.316 µM, first compound 1 µM): 48.5%
- viability, T/C (second compound 0.316 µM, first compound 3.16 µM): 31.8%
- viability, T/C (second compound 0.316 µM, first compound 10 µM): 24.9%
- viability, T/C [11]: 46.1%
- viability, T/C [12]: 54.1%
- viability, T/C (second compound 1 µM, first compound 0.316 µM): 45.1%
- viability, T/C (second compound 1 µM, first compound 1 µM): 46%
- viability, T/C (second compound 1 µM, first compound 3.16 µM): 31.2%
- viability, T/C (second compound 1 µM, first compound 10 µM): 20.8%

- pIC50 (second compound 0.00316 µM): < 7.00
- pIC50 (second compound 0.01 µM): < 7.00
- pIC50 (second compound 0.0316 µM): < 7.00
- pIC50 (second compound 0.1 µM): < 7.00
- pIC50 (second compound 0.316 µM): < 7.00
- pIC50 (second compound 1 µM): < 7.00
Compound: Cn1ncnc1[C@H]1c2n[nH]c(=O)c3cc(F)cc(c23)N[C@@H]1c1ccc(F)cc1 + CC(Nc1ccc2c(c1)OCCn1cc(N3C(=O)OCC3C(F)F)nc1-2)C(N)=O
- viability, T/C (second compound 0.00316 µM, first compound 0.000316 µM): 111%
- viability, T/C (second compound 0.00316 µM, first compound 0.001 µM): 107%
- viability, T/C (second compound 0.00316 µM, first compound 0.00316 µM): 105%
- viability, T/C (second compound 0.00316 µM, first compound 0.01 µM): 101%
- viability, T/C [1]: 112%
- viability, T/C [2]: 95.9%
- viability, T/C (second compound 0.01 µM, first compound 0.000316 µM): 93.8%
- viability, T/C (second compound 0.01 µM, first compound 0.001 µM): 87.4%
- viability, T/C (second compound 0.01 µM, first compound 0.00316 µM): 88.5%
- viability, T/C (second compound 0.01 µM, first compound 0.01 µM): 117%
- viability, T/C [3]: 85.7%
- viability, T/C [4]: 114%
- viability, T/C (second compound 0.0316 µM, first compound 0.000316 µM): 82.8%
- viability, T/C (second compound 0.0316 µM, first compound 0.001 µM): 95.9%
- viability, T/C (second compound 0.0316 µM, first compound 0.00316 µM): 77.7%
- viability, T/C (second compound 0.0316 µM, first compound 0.01 µM): 89.3%
- viability, T/C [5]: 95.2%
- viability, T/C [6]: 81.6%
- viability, T/C (second compound 0.1 µM, first compound 0.000316 µM): 104%
- viability, T/C (second compound 0.1 µM, first compound 0.001 µM): 82.4%
- viability, T/C (second compound 0.1 µM, first compound 0.00316 µM): 82.4%
- viability, T/C (second compound 0.1 µM, first compound 0.01 µM): 80.8%
- viability, T/C [7]: 88.4%
- viability, T/C [8]: 74.7%
- viability, T/C (second compound 0.316 µM, first compound 0.000316 µM): 68.3%
- viability, T/C (second compound 0.316 µM, first compound 0.001 µM): 65.2%
- viability, T/C (second compound 0.316 µM, first compound 0.00316 µM): 75.5%
- viability, T/C (second compound 0.316 µM, first compound 0.01 µM): 59.7%
- viability, T/C [9]: 60.6%
- viability, T/C [10]: 68.4%
- viability, T/C (second compound 1 µM, first compound 0.000316 µM): 65.7%
- viability, T/C (second compound 1 µM, first compound 0.001 µM): 50.8%
- viability, T/C (second compound 1 µM, first compound 0.00316 µM): 61.6%
- viability, T/C (second compound 1 µM, first compound 0.01 µM): 62.7%
- viability, T/C [11]: 68.8%
- viability, T/C [12]: 55.7%

Reference: PubChem BioAssay AID1963963 (Molecular Pharmacology Branch, DTP, NCI, 2024)
